Assay results reported in patent publication US10265287B2, “Methods of reducing triglycerides and LDL-C” (Amarin Pharmaceuticals Ireland Limited, priority 2009, dated 2019).

Assay: Lipid peroxide (LOOH) formation in model membranes, CHOD-iodide colorimetric assay
Assay type: biochemical
Details: cholesterol-enriched membranes
Procedure: An experiment was conducted to test EPA, DHA, EPA+DHA with and without with atorvastatin in model membranes enriched with PUFAs and cholesterol at levels that reproduce disease or high CV-risk conditions (i.e. hypercholesterimia). […] EPA and DHA were tested individually at a fixed concentration of 10.0 uM or in combination at 5.65 μM and 4.35 μM (EPA and DHA, respectively), which is a mole ratio of 1.3:1. Separate and combined effects of these agents on lipid peroxide (LOOH) formation were examined at cholesterol-to-phospholipid (C/P) mole ratios of 0.5:1, 1.0:1 and 1.5:1. Levels of lipid hydroperoxides were also measured for EPA, DPH and EPA/DPH in cholesterol-enriched membrane prepared in the absence and presence of atorvastatin. […] To ensure spectrophotometric readings within the optimum absorbance range, sample volumes taken for measurement of lipid peroxide formation were adjusted for length of peroxidation and range between 100 and 10 μl. […] Absorbances were measured against a CHOD blank at 365 nm using a Beckman DU-640 spectrophotometer. The CHOD colorimetric assay is based on the oxidation of iodide (I^-) by lipid hydroperoxides (LOOH) and proceeds according to the following reaction scheme: […]3^- The quantity of triiodide anion (I3^-) liberated in this reaction is directly proportional to the amount of lipid hydroperoxides present in the membrane sample. […]

SMILES: CCC=CCC=CCC=CCC=CCC=CCCCC(=O)O [EPA, eicosa-5,8,11,14,17-pentaenoic acid]
- antioxidant benefit compared with DHA (EPA and DHA each tested at 10.0 uM): superior to that observed with DHA
- antioxidant benefit (lipid peroxide (LOOH) formation) (autoxidation at 37° C., EPA tested at 10.0 uM): potent antioxidant benefit
